Measured values reported in a melting point compilation (Tetko et al.; mined from patent text by program, amines drawn as free bases though some values may be those of a salt).

Structure (SMILES)	melting point
CC=C1c2ccccc2CC(NO)c2ccccc21 (stereo unspecified)	121 to 124 °C
O=C(CN1CCC(NC(=O)c2ccccc2)CC1)c1ccccc1	168 °C
N#CC(C(=O)Nc1ccccc1)C(=O)c1nn(-c2ccccc2)c2c1COc1ccccc1-2 (stereo unspecified)	280 to 282 °C
OCc1cc2c3ccccc3ncn2n1	132 to 133 °C
CSc1nc(O)c(NC(=O)c2ccco2)c(O)n1	124 to 125 °C
CN1c2cscc2C(=O)N(CCN2CCOCC2)c2ccccc21	109 to 111 °C
O=C(c1cc(Br)c(O)c(Br)c1)c1c(CCc2ccccc2)oc2ccccc12	153 to 154 °C
CCOC(=O)C=Cc1ccc(O)cc1	70 to 71 °C
FC(F)(F)c1cccc(-c2nccc3nncn23)c1	145 to 146 °C
CCOC(=O)C(=C1NCCCN1OC)[N+](=O)[O-]	177 to 178 °C
COC(=O)C=Cc1ccc(OCCc2nc(-c3ccccc3)oc2C)nc1	138 to 139 °C
O=C(Cl)N(c1ccc(F)cc1)c1ccc(F)cc1	53 to 54 °C
Oc1ccc2cc(-c3csc(-c4ccccc4)n3)ccc2c1	194 to 197 °C
Cc1[nH]c2ccc(F)cc2c1CCCN1CCN(c2ccccc2)CC1	146 to 147 °C
Nc1n[nH]c2cc(C(=O)C=NO)ccc12	199 to 201 °C
COc1cc(C=C(C=O)C(C=O)=Cc2ccc(OC(=O)c3ccccc3)c(OC)c2)ccc1OC(=O)c1ccccc1	107 to 110 °C
COc1ccc(CCNC(=O)C(=O)NCc2cccnc2)cc1OC1CCCC1	148 to 149 °C
CC(C)CC(SCC1CCCCC1)c1c(O)cc(-c2ccccc2)oc1=O (stereo unspecified)	146 to 148 °C
CCOC(=O)CO[C@H]1CC[C@H](CCN(C(=O)c2ccccc2)S(=O)(=O)c2ccc(Cl)cc2)CC1	81 to 82 °C
CNCC(O)c1cc(C(F)(F)F)nc2c(C(F)(F)F)cccc12 (stereo unspecified)	158 °C
O=C(Nc1cccc2c(N=P(c3ccccc3)(c3ccccc3)c3ccccc3)ccnc12)c1c(Cl)cccc1Cl	276 to 281 °C
Nc1cc(Br)c([N+](=O)[O-])cc1Br	178 °C
C[C@@H](Nc1ncnc2[nH]c(-c3ccc(CNC(=O)CN4CCCCC4)cc3)cc12)c1ccccc1	194 to 196 °C
CCN(C(C)=O)c1cccc(-c2ccc3nncn3n2)c1	122 to 127 °C
CCOCCn1c(CN2CCN(CCNc3nc4cnccc4[nH]3)CC2)nc2cccnc21	124 °C
O=S(=O)(C(/C=C/c1ccc(Cl)cc1)c1c(F)c(F)c(F)c(F)c1F)C(/C=C/c1ccc(Cl)cc1)c1c(F)c(F)c(F)c(F)c1F (stereo unspecified)	154 to 155 °C
O=C(NN1CCc2ccccc2C(Oc2ccc(C(F)(F)F)cc2)C1)C(F)(F)F (stereo unspecified)	192 to 195 °C

Structure (SMILES)	melting point
N#Cc1cc(Cn2cncn2)cc(-c2ccc(O)cc2)c1	186 to 187 °C
Cc1[nH]c2ccc(F)cc2c1C(=O)Nc1ccc(N2CCC(O)CC2)c(C#N)c1	169 to 171 °C
CSc1ccc(CC(NC(=O)OCc2ccccc2)C(O)C#N)cc1 (stereo unspecified)	123 to 125 °C
COc1ccc(NC(=O)c2ccc(Br)cc2)cc1N1CCN(C)CC1	158 to 160 °C
Cc1cc2c3c(c1)nc(N1CCN(C)CC1)n3CCC2	164 to 165 °C
Nc1cc(N2CCc3ccccc3C2)ccn1	160 to 161 °C
OCc1cn(-c2ccc(F)c(Br)c2)cn1	151 to 152 °C
N#Cc1ccc(OCCO)c(C(N)=O)c1	144 to 146 °C
CC(C)C/C=C\CCCCCCCCCC(=O)O	12.5 °C
COc1cccc(CS[C@H]2C[C@@H](C(N)=O)N(C)C2)c1	113 to 114 °C
CSC1CC(=O)N1CC(=O)c1ccccc1 (stereo unspecified)	43 to 45 °C
CCNC(=O)Nc1ccc(C(O)(C(F)(F)F)C(F)(F)F)cc1Br	125 to 127 °C
O=[N+]([O-])c1cn(C2OC(CO)C(O)C2O)nn1 (stereo unspecified)	172 to 174 °C
O=C(O)C1c2ccccc2CCc2cc(Br)ccc21 (stereo unspecified)	129 to 131 °C
Cc1ccc(C(Br)C(Br)C(=O)c2ccccc2)cc1 (stereo unspecified)	84 °C
O=C(OCCN1CCN(CCN2CCOCC2)CC1)c1ccc(O)cc1	176 to 178 °C
NS(=O)(=O)c1cccc(C(=O)C(F)(F)F)c1	88.4 to 89.1 °C
OCc1cccc(-c2ccc(-c3cn([C@H]4CN5CCC4CC5)nn3)cc2)c1	207 °C
Nc1nc2ccc(CCN3CCC(Oc4ccccc4)CC3)cc2s1	164 to 167 °C
CC(C)(C)OC(=O)Nc1ccc(O)c2ccccc12	172 to 174 °C
O=[N+]([O-])c1c(NCCO)cc(C(O)CSCC(O)c2cc(NCCO)c([N+](=O)[O-])c(NCCO)c2)cc1NCCO (stereo unspecified)	157 °C
OC[C@@H](O)c1ccccc1Cl	39 °C
CC1(C)Nc2ccccc2-n2cnc(-c3nc(C4CC4)no3)c21	175 to 179 °C
Clc1ccc(-c2nccs2)cc1	169 to 170 °C
CC(C)(C)C(=O)C(C(CC#N)c1ccccc1)n1ccnc1 (stereo unspecified)	108 to 111 °C
C[C@H]1CN(c2nc(-c3ccccc3)nc3ccccc23)[C@@H](C)CN1c1ccccn1 (relative stereo)	68 to 70 °C

The remaining lines, values ahead:

melting point	Structure (SMILES)
108 to 110 °C	Cc1[nH]c2c(Cl)cc(Nc3cnccc3N)cc2c1C
168 to 170 °C	CN(C1=CC(=O)C(=O)c2ccccc21)C1CCCCC1
104 to 105 °C	CCOC(=O)C(CC(=O)c1ccccc1C(F)(F)F)(NC(C)=O)C(=O)OCC
100 to 102 °C	CCOC(=O)NCCc1cccc(-c2ccnc3c(Cl)cnn23)c1
> 270 °C	Cc1oc(C)c2c(=O)c3c(=O)ccc(=O)c=3c(=O)c12
148 to 150 °C	CC(=O)OC1CSC(Oc2cncc(-c3ccc(C#N)c(Cl)c3)c2)C(OC(C)=O)C1OC(C)=O (stereo unspecified)
89 to 91 °C	CC(=O)c1nn(-c2c(Cl)cc(C(F)(F)F)cc2Cl)cc1SC(F)(F)F
133 to 135 °C	COC(=O)C1(O)CSC(SC(C)=O)=C1Cl (stereo unspecified)
145 °C	CCOC(=O)C1=C(N)NC(N)=C(C(=O)OCC)C1c1ccnc2ccccc12
237 to 242 °C	O=C1NC(=O)c2c1c(-c1ccccc1Cl)cc1c2c2cc(O)ccc2n1CCS(=O)c1ncn[nH]1 (stereo unspecified)
> 275 °C	Nc1nc(-c2cc(Cl)ccc2Cl)nc(N2CCNC(=O)C2)n1
93 to 95 °C	CC(Br)c1ccc2c(=O)c3ccccc3ccc2c1 (stereo unspecified)
78 to 80 °C	Cc1ccc(Oc2c(C)cc([N+](=O)[O-])c(C)c2Cl)c(C)c1
53.5 to 54.5 °C	Cc1ccc([N+](=O)[O-])cc1COCC(F)(F)C(F)(F)F
108 to 109 °C	CCOC(=O)C1(NC(C)=O)CC(C)(C)NC(C)(C)C1
176 to 178 °C	Cc1ccc(C(=O)c2ccc(CC(=O)O)n2C)c(Cl)c1
145 to 150 °C	C#Cc1ccnc(-c2cc(N)c(C#C[Si](C)(C)C)cc2[N+](=O)[O-])c1
94 to 95 °C	COc1noc2c(C)cc(C#CCCN3CCOC3=O)cc12
150 °C	COC(=O)c1c(-c2ccccc2)oc2c(CCl)cccc2c1=O
171 to 173 °C	CC(=O)C1C(=O)N(C(=O)Nc2ccccc2)c2ccccc21 (stereo unspecified)
280 to 282 °C	COc1ccc(-n2cc(/C=C(\C#N)C(=O)NS(C)(=O)=O)c(-c3ccc(Cl)c(F)c3)n2)cc1Cl
78 to 82 °C	CC(=O)C(C)N(C(=O)CCl)c1c(C)cccc1C (stereo unspecified)
117 to 120 °C	CCOC(=O)c1cnn(-c2cccc(S(=O)(=O)N(C)C)n2)c1Cl
233 to 236 °C	CSc1ccc(-c2nc(SC)c(C#N)c(=O)n2-c2ccc(C(C)(C)C)cc2)cc1

melting point	Structure (SMILES)
34 °C	CCCSc1ccc(C(=O)C(=O)OCC)[nH]1
190 to 196 °C	CCOC(=O)c1[nH]cc2c1NC1=C(C(=O)CNC1)C2c1ccc(Sc2nc3cc(F)c(F)cc3[nH]2)o1 (stereo unspecified)
152 to 155 °C	COC(=O)C1=C(C)NC(=O)N(C(=O)OC)C1c1cccc([N+](=O)[O-])c1 (stereo unspecified)
74 to 77 °C	CCCS(=O)(=O)c1ccccc1S(=O)(=O)Cl
64 to 67 °C	CCOC(=O)C1(C(=O)Nc2ccc(Br)cc2C)CCCC1
70 °C	COc1cc2c(cc1C)C(CCCN1CCN(C)CC1)(c1ccccc1F)C(=O)N2S(=O)(=O)c1ccc(OC(C)C)cc1 (stereo unspecified)
119 to 120 °C	O=Cc1cccn1-c1ccc(C(F)(F)F)cc1Cl
84 to 87 °C	CCC(C)n1ncn(-c2ccc(N3CCN(c4ccc(OCC(O)(Cn5cncn5)c5ccc(Cl)cc5Cl)cc4)CC3)nc2)c1=O (stereo unspecified)
165 to 167 °C	COc1cc(C(=O)N2Cc3ccc(C(=O)NCc4cccnc4)n3Cc3ccccc32)ccc1-c1ccccc1C
261 to 266 °C	COc1ccc2c3c(c(Cl)nc2c1)C(=O)c1ccccc1-3
97 °C	CCC1(C)C(=O)c2c(Cl)cc(C)c(C)c2C1=O (stereo unspecified)
87 to 90 °C	COc1cc(NC(=O)CCCCCN2CC(C)OC(C)C2)c2nccc(C)c2c1 (stereo unspecified)
74 to 75 °C	CCCCCCCCCCCCCCCCN(C)S(=O)(=O)c1ccc(Cl)c([N+](=O)[O-])c1
68 °C	CCCOc1ccc(Cc2nn(-c3ccccc3Cl)c(=O)o2)cc1
89 to 90 °C	COC(=O)c1cc(OC(C)C)nn1Cc1ccc(Cl)cc1Cl
111 to 112 °C	Cc1c(Br)csc1-c1nc(-c2c(F)cccc2Cl)nn1C
> 270 °C	CC(C)Cc1csc2[nH]c(=O)c(=O)[nH]c12
> 300 °C	COC(=O)Nc1cccc2c1C(=O)c1c-2n[nH]c1-c1ccc(OC)cc1
178 °C	COC(=O)C1CCCN1S(=O)(=O)c1ccc(Cl)c(COc2cccn3c(C(C)=O)c(C)nc23)c1Cl (stereo unspecified)
74 to 77 °C	CCCC1(S(=O)(=O)CCC(=O)OC)c2ccccc2-c2ccccc21
69.8 to 70.5 °C	CCOC(=O)C(Cc1ccc(OCCc2nc(-c3ccccc3)oc2C)cc1)C(=O)OCC
134 °C	COC1(c2cc(F)cc(Sc3ccc4c(c3)CCC(=S)N4C)c2)CCOCC1
229 to 233 °C	O=C1N(c2c(Cl)cccc2Cl)Cc2cnc(NCC3CCCCC3)nc2N1c1ccccc1
156 to 158 °C	COc1ccc2[nH]c(C)c(C(C)=O)c2c1
